Values after ≈ are worked out from the molar mass of the structure shown.
How the values were obtained:
Type in all cases: functional
[1] = tested on: Staphylococcus epidermidis; test: Antibacterial activity against methicillin-sensitive Staphylococcus epidermidis 01-1004 by broth microdilution method
[2] = tested on: Staphylococcus epidermidis; test: Antibacterial activity against methicillin-resistant Staphylococcus epidermidis 01-1090 by broth microdilution method
Streptococcus pyogenes [3] = test: Antibacterial activity against erythromycin-susceptible Streptococcus pyogenes 01-740 by broth microdilution method
Streptococcus pneumoniae [4] = test: Antibacterial activity against erythromycin-resistant Streptococcus pneumoniae 03-451 by broth microdilution method
Streptococcus pneumoniae [5] = test: Antibacterial activity against erythromycin-resistant Streptococcus pneumoniae 03-436 by broth microdilution method
[6] = tested on: Staphylococcus epidermidis; test: Antibacterial activity against methicillin-sensitive Staphylococcus epidermidis 01-1091 by broth microdilution method
Streptococcus pneumoniae [7] = test: Antibacterial activity against erythromycin-resistant Streptococcus pneumoniae 03-458 by broth microdilution method
Staphylococcus aureus [8] = test: Antibacterial activity against methicillin-resistant Staphylococcus aureus 01-429 by broth microdilution method
[9] = tested on: Staphylococcus epidermidis; test: Antibacterial activity against methicillin-sensitive Staphylococcus epidermidis 01-1005 by broth microdilution method
Staphylococcus aureus [10] = test: Antibacterial activity against methicillin-resistant Staphylococcus aureus 01-483 by broth microdilution method
Staphylococcus aureus [11] = test: Antibacterial activity against methicillin-resistant Staphylococcus aureus 01-433 by broth microdilution method
Streptococcus pyogenes [12] = test: Antibacterial activity against erythromycin-resistant Streptococcus pyogenes 03-680 by broth microdilution method
Streptococcus pneumoniae [13] = test: Antibacterial activity against Streptococcus pneumoniae ATCC 49619 by broth microdilution method
Streptococcus pyogenes [14] = test: Antibacterial activity against erythromycin-susceptible Streptococcus pyogenes 01-469 by broth microdilution method
Streptococcus pyogenes [15] = test: Antibacterial activity against erythromycin-susceptible Streptococcus pyogenes 01-804 by broth microdilution method
[16] = tested on: Staphylococcus epidermidis; test: Antibacterial activity against methicillin-resistant Staphylococcus epidermidis 01-1059 by broth microdilution method
Staphylococcus aureus [17] = test: Antibacterial activity against methicillin-sensitive Staphylococcus aureus 01-430 by broth microdilution method
Staphylococcus aureus [18] = test: Antibacterial activity against methicillin-sensitive Staphylococcus aureus 01-431 by broth microdilution method
[19] = tested on: Staphylococcus epidermidis; test: Antibacterial activity against methicillin-resistant Staphylococcus epidermidis 01-1056 by broth microdilution method
Staphylococcus aureus [20] = test: Antibacterial activity against methicillin-sensitive Staphylococcus aureus 01-481 by broth microdilution method

Row | SMILES | MIC [1] [µg/mL] | MIC [2] [µg/mL] | MIC (Streptococcus pyogenes [3]) [µg/mL] | MIC (Streptococcus pneumoniae [4]) [µg/mL] | MIC (Streptococcus pneumoniae [5]) [µg/mL] | MIC [6] [µg/mL] | MIC (Streptococcus pneumoniae [7]) [µg/mL] | MIC (Staphylococcus aureus [8]) [µg/mL] | MIC [9] [µg/mL] | MIC (Staphylococcus aureus [10]) [µg/mL] | MIC (Staphylococcus aureus [11]) [µg/mL] | MIC (Streptococcus pyogenes [12]) [µg/mL] | MIC (Streptococcus pneumoniae [13]) [µg/mL] | MIC (Streptococcus pyogenes [14]) [µg/mL] | MIC (Streptococcus pyogenes [15]) [µg/mL] | MIC [16] [µg/mL] | MIC (Staphylococcus aureus [17]) [µg/mL] | MIC (Staphylococcus aureus [18]) [µg/mL] | MIC [19] [µg/mL] | MIC (Staphylococcus aureus [20]) [µg/mL]
1 | C=CCO[C@@H]1C[C@@H](C)C(=O)[C@H](C)[C@H]2OC(=O)O[C@]2(C)[C@@H](CC)OC(=O)[C@H](C)[C@@H](OC(=O)CCc2c[nH]c3ccccc23)[C@H](C)[C@H]1O[C@@H]1O[C@H](C)C[C@H](N(C)C)[C@H]1O | 32 (≈ 40.1 µM) | 32 (≈ 40.1 µM) | 1 (≈ 1.25 µM) | 32 (≈ 40.1 µM) | 32 (≈ 40.1 µM) | 32 (≈ 40.1 µM) | 32 (≈ 40.1 µM) | 32 (≈ 40.1 µM) | 32 (≈ 40.1 µM) | 32 (≈ 40.1 µM) | 32 (≈ 40.1 µM) | 32 (≈ 40.1 µM) | 4 (≈ 5.01 µM) | 1 (≈ 1.25 µM) | 1 (≈ 1.25 µM) | 32 (≈ 40.1 µM) | 32 (≈ 40.1 µM) | 32 (≈ 40.1 µM) | 32 (≈ 40.1 µM) | 32 (≈ 40.1 µM)
2 | CC[C@H]1OC(=O)[C@H](C)[C@@H](O[C@H]2C[C@@](C)(OC)[C@@H](O)[C@H](C)O2)[C@H](C)[C@@H](O[C@@H]2O[C@H](C)C[C@H](N(C)C)[C@H]2O)[C@](C)(OC)C[C@@H](C)C(=O)[C@H](C)[C@@H](O)[C@]1(C)O [CLARITHROMYCIN] | 0.125 (≈ 0.167 µM) | 256 (≈ 342 µM) | 0.062 (≈ 0.0829 µM) | 32 (≈ 42.8 µM) | 128 (≈ 171 µM) | 0.125 (≈ 0.167 µM) | 256 (≈ 342 µM) | 256 (≈ 342 µM) | 0.125 (≈ 0.167 µM) | 256 (≈ 342 µM) | 256 (≈ 342 µM) | 256 (≈ 342 µM) | 0.25 (≈ 0.334 µM) | 0.062 (≈ 0.0829 µM) | 0.125 (≈ 0.167 µM) | 256 (≈ 342 µM) | 0.25 (≈ 0.334 µM) | 0.25 (≈ 0.334 µM) | 256 (≈ 342 µM) | 0.5 (≈ 0.668 µM)
3 | C=CCO[C@@H]1C[C@@H](C)C(=O)[C@H](C)[C@H]2OC(=O)O[C@]2(C)[C@@H](CC)OC(=O)[C@H](C)[C@@H](OC(=O)Cc2ccccc2Cl)[C@H](C)[C@H]1OC1O[C@H](C)C[C@H](N(C)C)[C@H]1O (stereo not given in full) | 1 (≈ 1.28 µM) | 4 (≈ 5.13 µM) | 0.062 (≈ 0.0795 µM) | 4 (≈ 5.13 µM) | 8 (≈ 10.3 µM) | 1 (≈ 1.28 µM) | 2 (≈ 2.56 µM) | 16 (≈ 20.5 µM) | 1 (≈ 1.28 µM) | 4 (≈ 5.13 µM) | 16 (≈ 20.5 µM) | 16 (≈ 20.5 µM) | 0.25 (≈ 0.32 µM) | 0.062 (≈ 0.0795 µM) | 0.125 (≈ 0.16 µM) | 8 (≈ 10.3 µM) | 1 (≈ 1.28 µM) | 1 (≈ 1.28 µM) | 32 (≈ 41 µM) | 4 (≈ 5.13 µM)
4 | C=CCO[C@@H]1C[C@@H](C)C(=O)[C@H](C)[C@H]2OC(=O)O[C@]2(C)[C@@H](CC)OC(=O)[C@H](C)[C@@H](OC(=O)Cc2cccnc2)[C@H](C)[C@H]1O[C@@H]1O[C@H](C)C[C@H](N(C)C)[C@H]1O | 0.5 (≈ 0.669 µM) | 2 (≈ 2.68 µM) | 0.125 (≈ 0.167 µM) | 2 (≈ 2.68 µM) | 2 (≈ 2.68 µM) | 0.5 (≈ 0.669 µM) | 2 (≈ 2.68 µM) | 32 (≈ 42.8 µM) | 0.5 (≈ 0.669 µM) | 8 (≈ 10.7 µM) | 32 (≈ 42.8 µM) | 16 (≈ 21.4 µM) | 0.25 (≈ 0.335 µM) | 0.125 (≈ 0.167 µM) | 0.125 (≈ 0.167 µM) | 32 (≈ 42.8 µM) | 1 (≈ 1.34 µM) | 1 (≈ 1.34 µM) | 32 (≈ 42.8 µM) | 2 (≈ 2.68 µM)
5 | C=CCO[C@@H]1C[C@@H](C)C(=O)[C@H](C)[C@H]2OC(=O)O[C@]2(C)[C@@H](CC)OC(=O)[C@H](C)[C@@H](OC(=O)Cc2ccc(Cl)cc2)[C@H](C)[C@H]1OC1O[C@H](C)C[C@H](N(C)C)[C@H]1O (stereo not given in full) | 2 (≈ 2.56 µM) | 16 (≈ 20.5 µM) | 0.25 (≈ 0.32 µM) | 8 (≈ 10.3 µM) | 16 (≈ 20.5 µM) | 2 (≈ 2.56 µM) | 8 (≈ 10.3 µM) | 16 (≈ 20.5 µM) | 2 (≈ 2.56 µM) | 16 (≈ 20.5 µM) | 16 (≈ 20.5 µM) | 8 (≈ 10.3 µM) | 1 (≈ 1.28 µM) | 0.5 (≈ 0.641 µM) | 0.5 (≈ 0.641 µM) | 16 (≈ 20.5 µM) | 4 (≈ 5.13 µM) | 4 (≈ 5.13 µM) | 32 (≈ 41 µM) | 8 (≈ 10.3 µM)

Source: ChEMBL document CHEMBL1148023, “Synthesis and antibacterial activity of derivatives of 6-O-allylic acylides” (2007)
